From patent US20240124460A1, “METHODS AND COMPOSITIONS FOR TARGETED PROTEIN DEGRADATION” (Ranok Therapeutics (Hangzhou) Co. Ltd., priority 2020, published 2024)

Key:
[1] = test system: MV-4-11 human acute myeloid leukemia; assay: MV-4-11 CCK-8 proliferation assay; type: cell-based; details: Homo sapiens, MV4-11; MV-4-11 cells, 72 hr
Procedure: (§1) The following cancer cell lines were employed: A549 human lung carcinoma (ATCC, #CCL-185); BT-474 human breast carcinoma (ATCC, #HTB-20); MDA-MB-231 human breast adenocarcinoma (ATCC, #CRM−HTB-26); MDA-MB-468 human breast adenocarcinoma (ATCC, #HTB-132); MV-4-11 human acute myeloid leukemia (ATCC, #CRL-9591); and U-87 MG human glioblastoma (ATCC, #HTB-14). Cell lines were cultured essentially according to ATCC recommendations.
(§2) 3-fold serial dilutions of each test compound were prepared ranging from 20 μM to 1.02 nM.
(§3) % Inhibition=100−(D−B)/(S−B)*100%. • S: Absorbance of cells treated with DMSO • D: Absorbance of compound-treated cells • B: Absorbance of medium with DMSO without cells

[2] = test system: U-87 MG human glioblastoma; assay: U87 MG CCK-8 proliferation assay; type: cell-based; details: Homo sapiens, U-87 MG, 72 h, U-87 MG cells, read-out: U87MG CCK-8
Procedure: as §1, §2, §3

SMILES	EC50 [1]	EC50 [2]
CCOc1cc(N2CCC(C(=O)NCCCOc3ccc(-c4ccc(NC(=O)c5ccc(OC)c(-c6cccc(OC)c6)c5)cc4)cc3)CC2)ccc1Nc1ncc2c(n1)N(C)c1ccccc1C(=O)N2C [Compound 147, N-(3-((4′-(3′,6-dimethoxy-[1,1′-biphenyl]-3-carboxamido)-[1,1′-biphenyl]-4-yl)oxy)propyl)-1-(4-((5,11-dimethyl-6-oxo-6,11-dihydro-5H-benzo[e]pyrimido[5,4-b][1,4]diazepin-2-yl)amino)-3-ethoxyphenyl)piperidine-4-carboxamide]	> 1 µM	> 1 µM
CCOc1cc(N2CCC(C(=O)N3CCC(Oc4ccc(-c5ccc(NC(=O)c6ccc(OC)c(-c7cccc(OC)c7)c6)cc5)cc4)CC3)CC2)ccc1Nc1ncc2c(n1)N(C)c1ccccc1C(=O)N2C [Compound 143, N-(4′-((1-(1-(4-((5,11-dimethyl-6-oxo-6,11-dihydro-5H-benzo[e]pyrimido[5,4-b][1,4]diazepin-2-yl)amino)-3-ethoxyphenyl)piperidine-4-carbonyl)piperidin-4-yl)oxy)-[1,1′-biphenyl]-4-yl)-3′,6-dimethoxy-[1,1′-biphenyl]-3-carboxamide]	> 1 µM	> 1 µM
CCOc1cc(N2CCC(C(=O)N3CCN(Cc4ccc(-n5c(O)nnc5-c5cc(C(C)C)c(O)cc5O)cc4)CC3)CC2)ccc1N(CC)c1ncc2c(n1)N(S(C)(=O)=O)c1ccccc1C(=O)N2C [Compound 160, 2-((4-(4-(4-(4-(3-(2,4-dihydroxy-5-isopropylphenyl)-5-hydroxy-4H-1,2,4-triazol-4-yl)benzyl)piperazine-1-carbonyl)piperidin-1-yl)-2-ethoxyphenyl)(ethyl)amino)-5-methyl-11-(methylsulfonyl)-5,11-dihydro-6H-benzo[e]pyrimido[5,4-b][1,4]diazepin-6-one]	< 0.1 µM	0.1 to 1 µM
CCOc1cc(N2CCC(C(=O)N3CCC(Oc4ccc(-c5ccc(NC(=O)c6ccc(OC)c(-c7cccc(OC)c7)c6)cc5)cc4)CC3)CC2)ccc1Nc1ncc2c(n1)N(S(C)(=O)=O)c1ccccc1C(=O)N2C [Compound 144, N-(4′-((1-(1-(3-ethoxy-4-((5-methyl-11-(methylsulfonyl)-6-oxo-6,11-dihydro-5H-benzo[e]pyrimido[5,4-b][1,4]diazepin-2-yl)amino)phenyl)piperidine-4-carbonyl)piperidin-4-yl)oxy)-[1,1′-biphenyl]-4-yl)-3′,6-dimethoxy-[1,1′-biphenyl]-3-carboxamide]	> 1 µM	> 1 µM
CCOc1cc(N2CCC(C(=O)N3CCC(COc4ccc(-c5ccc(NC(=O)c6ccc(OC)c(-c7cccc(OC)c7)c6)cc5)cc4)CC3)CC2)ccc1Nc1ncc2c(n1)N(C)c1ccccc1C(=O)N2C [Compound 145, N-(4′-((1-(1-(4-((5,11-dimethyl-6-oxo-6,11-dihydro-5H-benzo[e]pyrimido[5,4-b][1,4]diazepin-2-yl)amino)-3-ethoxyphenyl)piperidine-4-carbonyl)piperidin-4-yl)methoxy)-[1,1′-biphenyl]-4-yl)-3′,6-dimethoxy-[1,1′-biphenyl]-3-carboxamide]	> 1 µM	> 1 µM
CCOc1cc(N2CCC(C(=O)NCCOCCOCCOc3ccc(Nc4cc(-n5nc(C(F)(F)F)c6c5CC(C)(C)CC6=O)ccc4C(N)=O)cc3)CC2)ccc1Nc1ncc2c(n1)N(C)c1ccccc1C(=O)N2C [Compound 131, N-(2-(2-(2-(4-((2-carbamoyl-5-(6,6-dimethyl-4-oxo-3-(trifluoromethyl)-4,5,6,7-tetrahydro-1H-indazol-1-yl)phenyl)amino)phenoxy)ethoxy)ethoxy)ethyl)-1-(4-((5,11-dimethyl-6-oxo-6,11-dihydro-5H-benzo[e]pyrimido[5,4-b][1,4]diazepin-2-yl)amino)-3-ethoxyphenyl)piperidine-4-carboxamide]	0.1 to 1 µM	> 1 µM

The remaining lines, values ahead:

EC50 [1]	EC50 [2]	SMILES
< 0.1 µM	0.1 to 1 µM	CCOc1cc(N2CCC(C(=O)NCc3ccc(CN(CC)Cc4ccc(-n5c(O)nnc5-c5cc(C(C)C)c(O)cc5O)cc4)cc3)CC2)ccc1Nc1ncc2c(n1)N(S(C)(=O)=O)c1ccccc1C(=O)N2C [Compound 166, N-(4-(((4-(3-(2,4-dihydroxy-5-isopropylphenyl)-5-hydroxy-4H-1,2,4-triazol-4-yl)benzyl)(ethyl)amino)methyl)benzyl)-1-(3-ethoxy-4-((5-methyl-11-(methylsulfonyl)-6-oxo-6,11-dihydro-5H-benzo[e]pyrimido[5,4-b][1,4]diazepin-2-yl)amino)phenyl)piperidine-4-carboxamide]
< 0.1 µM	< 0.1 µM	CCOc1cc(N2CCC(C(=O)N3CCN(Cc4ccc(-n5c(C(=O)NCCN6CCN(S(C)(=O)=O)CC6)nnc5-c5cc(C(C)C)c(O)cc5O)cc4)CC3)CC2)ccc1Nc1ncc2c(n1)N(S(C)(=O)=O)c1ccccc1C(=O)N2C [Compound 174, 5-(2,4-dihydroxy-5-isopropylphenyl)-4-(4-((4-(1-(3-ethoxy-4-((5-methyl-11-(methylsulfonyl)-6-oxo-6,11-dihydro-5H-benzo[e]pyrimido[5,4-b][1,4]diazepin-2-yl)amino)phenyl)piperidine-4-carbonyl)piperazin-1-yl)methyl)phenyl)-N-(2-(4-(methylsulfonyl)piperazin-1-yl)ethyl)-4H-1,2,4-triazole-3-carboxamide]
< 0.1 µM	0.1 to 1 µM	CCOc1cc(N2CCC(CN3CC4(CCN(Cc5ccc(-n6c(O)nnc6-c6cc(C(C)C)c(O)cc6O)cc5)CC4)C3)CC2)ccc1Nc1ncc2c(n1)N(S(C)(=O)=O)c1ccccc1C(=O)N2C [Compound 183, 2-((4-(4-((7-(4-(3-(2,4-dihydroxy-5-isopropylphenyl)-5-hydroxy-4H-1,2,4-triazol-4-yl)benzyl)-2,7-diazaspiro[3.5]nonan-2-yl)methyl)piperidin-1-yl)-2-ethoxyphenyl)amino)-5-methyl-11-(methylsulfonyl)-5,11-dihydro-6H-benzo[e]pyrimido[5,4-b][1,4]diazepin-6-one]
< 0.1 µM	< 0.1 µM	CCOc1cc(N2CCC(C(=O)N3CCN(Cc4ccc(-n5c(C(=O)NCCN6CCN(C)CC6)nnc5-c5cc(C(C)C)c(O)cc5O)cc4)CC3)CC2)ccc1Nc1ncc2c(n1)N(C)c1ccccc1C(=O)N2C [Compound 167, 5-(2,4-dihydroxy-5-isopropylphenyl)-4-(4-((4-(1-(4-((5,11-dimethyl-6-oxo-6,11-dihydro-5H-benzo[e]pyrimido[5,4-b][1,4]diazepin-2-yl)amino)-3-ethoxyphenyl)piperidine-4-carbonyl)piperazin-1-yl)methyl)phenyl)-N-(2-(4-methylpiperazin-1-yl)ethyl)-4H-1,2,4-triazole-3-carboxamide]
0.1 to 1 µM	> 1 µM	CCOc1cc(N2CCC(CN3CCN(Cc4ccc(-n5c(C(=O)NC(C)C(F)(F)F)nnc5-c5cc(CC)c(O)cc5O)cc4)CC3)CC2)ccc1Nc1ncc2c(n1)N(C1CCCC1)c1ccccc1C(=O)N2C (stereo not shown) [Compound 186, 4-(4-((4-((1-(4-((11-cyclopentyl-5-methyl-6-oxo-6,11-dihydro-5H-benzo[e]pyrimido[5,4-b][1,4]diazepin-2-yl)amino)-3-ethoxyphenyl)piperidin-4-yl)methyl)piperazin-1-yl)methyl)phenyl)-5-(5-ethyl-2,4-dihydroxyphenyl)-N-(1,1,1-trifluoropropan-2-yl)-4H-1,2,4-triazole-3-carboxamide]
< 0.1 µM	< 0.1 µM	CCOc1cc(N2CCC(C(=O)N3CCN(Cc4ccc(-n5c(C(=O)NCC(F)(F)C(F)(F)F)nnc5-c5cc(C(C)C)c(O)cc5O)cc4)CC3)CC2)ccc1Nc1ncc2c(n1)N(S(C)(=O)=O)c1ccccc1C(=O)N2C [Compound 175, 5-(2,4-dihydroxy-5-isopropylphenyl)-4-(4-((4-(1-(3-ethoxy-4-((5-methyl-11-(methylsulfonyl)-6-oxo-6,11-dihydro-5H-benzo[e]pyrimido[5,4-b][1,4]diazepin-2-yl)amino)phenyl)piperidine-4-carbonyl)piperazin-1-yl)methyl)phenyl)-N-(2,2,3,3,3-pentafluoropropyl)-4H-1,2,4-triazole-3-carboxamide]
< 0.1 µM	< 0.1 µM	CCOc1cc(N2CCC(CN3CCN(Cc4ccc(-n5c(O)nnc5-c5cc(C(C)C)c(O)cc5O)cc4)CC3)CC2)ccc1Nc1ncc2c(n1)N(S(C)(=O)=O)c1ccccc1C(=O)N2C [Compound 187, 2-((4-(4-((4-(4-(3-(2,4-dihydroxy-5-isopropylphenyl)-5-hydroxy-4H-1,2,4-triazol-4-yl)benzyl)piperazin-1-yl)methyl)piperidin-1-yl)-2-ethoxyphenyl)amino)-5-methyl-11-(methylsulfonyl)-5,11-dihydro-6H-benzo[e]pyrimido[5,4-b][1,4]diazepin-6-one]
< 0.1 µM	< 0.1 µM	CCOc1cc(N2CCC(C(=O)N3CCN(Cc4ccc(-n5c(C(=O)NCCN(CC)CC)nnc5-c5cc(C(C)C)c(O)cc5O)cc4)CC3)CC2)ccc1Nc1ncc2c(n1)N(C)c1ccccc1C(=O)N2C [Compound 163, N-(2-(diethylamino)ethyl)-5-(2,4-dihydroxy-5-isopropylphenyl)-4-(4-((4-(1-(4-((5,11-dimethyl-6-oxo-6,11-dihydro-5H-benzo[e]pyrimido[5,4-b][1,4]diazepin-2-yl)amino)-3-ethoxyphenyl)piperidine-4-carbonyl)piperazin-1-yl)methyl)phenyl)-4H-1,2,4-triazole-3-carboxamide]
